According to article PMC7281614, “Induction of Antibacterial Metabolites by Co-Cultivation of Two Red-Sea-Sponge-Associated Actinomycetes Micromonospora sp. UR56 and Actinokinespora sp. EG49” (Marine Drugs, 2020):
Read-outs that look alike come from different tables or passages of the source.

Assays:
in vitro = details: human
Protocol: (§1) The cell lines were purchased from ATCC by (VACSERA), Cairo, Egypt. […] The cell lines were used to detect the inhibitory effects of isolated compounds on cell growth. Cell viability was determined via colorimetric assay (MTT), which is based on the transformation of the yellow tetrazolium bromide to a purple formazan by mitochondrial succinate dehydrogenase. […] Subsequently, the cells were mixed with different concentrations of the isolated compounds and incubated for a further 24 h, and then treated with 20 µL of MTT solution at a concentration of 5 mg/mL and incubated for 4 h. […] The relative cell viability as a percentage was calculated as A570 of treated samples/A570 of untreated sample × 100.

MCF7 = assay: Cytotoxic activity, MTT assay; details: Homo sapiens, MCF7, 24 h, read-out: Cytotoxic activity (IC50) MCF7
Protocol: as §1

HCT116 = assay: Cytotoxic activity, MTT assay; details: Homo sapiens, HCT-116, 24 h, read-out: Cytotoxic activity (IC50) HCT116
Protocol: as §1

[1] = molecular target: Staphylococcus pyruvate kinase (PK) (Staphylococcus aureus, UniProt Q6GG09); assay: In vitro enzyme assay, pyruvate kinase inhibition; type: biochemical; details: IC50 ± SD
Protocol: (§2) DNA gyrase (type II topoisomerase) and topoisomerase IV (ParE) add negative supercoils into DNA using ATP hydrolysis as a source of energy. They are considered crucial bacterial enzymes that are absent in eukaryotes. DNA-gyrase-B- and ParE-inhibitory activities were evaluated using the Inspiralis assay kit (Inspiralis®, London, UK) on streptavidin-coated 96 well microtiter plates (Thermo Scientific, Hamburg, Germany), according to the manufacturer’s protocol. The assay detects the ability of the isolated compounds to prevent the ATPase activity of both gyrase-B and ParE subunits. On the other hand, pyruvate kinase (PK) has been discovered to be an important hub protein in the interactome of MRSA [52]. The PK-inhibitory activity of the isolated compounds was assessed according to a previously reported method.

[2] = system: Escherichia coli ATCC25922; assay: Antibacterial activity, growth inhibition in 96 well plates (OD600); type: cell-based
Protocol: (§3) The antibacterial activity of all isolated pure compounds (1–3, 9, and 10) was evaluated on Gram-positive pathogenic bacteria such as Bacillus subtilis (ATCC29212) and Staphylococcus aureus (ATCC9144 (and Gram-negative pathogenic bacteria such as Escherichia coli. (ATCC25922) and Pseudomonas aeruginosa (ATCC27853), as previously reported. The tests were carried out in 96 well flat polystyrene plates. First, 10 μL of each isolated compound (15 µM) was transferred to 80 μL of lysogeny broth followed by the addition of 10 μL of bacterial suspension at log phase, and then all inoculated plates were incubated overnight at 37 °C. […] The absorbance was observed after 20 h at OD600 in a Spectrostar Nano Microplate Reader (BMG LABTECH GmbH, Allmendgrun, Germany). The positive control was pathogenic bacteria plus distilled water, while the negative control was growth medium plus distilled water.

[3] = system: Staphylococcus aureus ATCC9144; assay: as above; type: cell-based; details: NA: no activity; for inhibition at 15 µM: Staphylococcus aureus, ATCC9144, at 15 µM; for Growth inhibition % Staphylococcus aureus: at 15 µM, 15 µM
Protocol: as §3

[4] = system: Pseudomonas aeruginosa ATCC27853; assay: as above; type: cell-based; details: NA: no activity; for inhibition at 15 µM: Pseudomonas aeruginosa; for Growth inhibition % Pseudomonas aeruginosa: at 15 µM, 15 µM
Protocol: as §3

[5] = system: Bacillus subtilis ATCC29212; assay: as above; type: cell-based
Protocol: as §3

[6] = molecular target: T1, Staphylococcus DNA gyrase-B (Staphylococcus aureus, UniProt P0A0K8); assay: In vitro enzyme assay, DNA gyrase-B ATPase (Inspiralis kit); type: biochemical
T1 construct: purchased Inspiralis
Protocol: as §2

P. aeruginosa = assay: Antibiofilm activity, crystal violet staining; type: cell-based, Pseudomonas aeruginosa; details: for inhibition at 2 µM: Pseudomonas aeruginosa
Protocol: (§4) The biofilm-inhibitory activities of the isolated pure compounds (1–3, 9, and 10) were measured using 96 well flat polystyrene plates against four clinical microbes comprising Gram-positive (Bacillus subtilis and Staphylococcus aureus) and Gram-negative (Escherichia coli and Pseudomonas aeruginosa) pathogenic bacteria, according to Antunes, et al. with some modifications. Briefly, each well was filled with 180 µL lysogeny broth (LB broth) and then inoculated with 10 µL of pathogenic bacteria followed by addition of 10 µL of sample (2 µM) along with control (without test sample). All inoculated plates were then incubated overnight at 37 °C and, after incubation, content in the wells was removed and wells were rinsed with 200 µL of phosphate-buffered saline (PBS) pH 7.2 to eliminate free-floating microbes and left to dry under sterilized laminar flow for 1 h. For staining, 200 µL/well of crystal violet (0.1%, w/v) was added, left for 1 h, and then excessive stain was removed and plates retained for drying. Further, dried plates were rinsed with 95% ethanol and optical density was measured at 570 nm using a Spectrostar Nano Microplate Reader (BMG LABTECH GmbH, Allmendgrun, Germany).

S. aureus = assay: Antibiofilm activity, crystal violet staining; type: cell-based, Staphylococcus aureus; details: NA: no activity; for inhibition at 2 µM: Staphylococcus aureus; for Antibiofilm activity (% inhibition) S. aureus: at 2 µM, 2 µM
Protocol: as §4

HePG-2 = assay: Cytotoxic activity, MTT assay; type: cell-based; details: Homo sapiens, read-out: Cytotoxic activity (IC50) HePG-2
From the text: (§5) Doxorubicin was used as a positive control drug.

E. coli = assay: Antibiofilm activity, crystal violet staining; type: cell-based; details: Escherichia coli, read-out: Antibiofilm activity (% inhibition) E. coli
Protocol: as §4

B. subtilis = assay: Antibiofilm activity, crystal violet staining; type: cell-based; details: Bacillus subtilis, NA: no activity
Protocol: as §4

[7] = system: four human cancer cell lines; assay: Cytotoxic activity, MTT assay, all four tested cell lines together; type: cell-based; details: range over WI38, HCT116, HePG-2, MCF7, read-out: IC50 values towards the tested cell lines (range)
From the text: as §5

[8] = ATCC25922, at 15 µM, NA: no activity, read-out: Growth inhibition % Escherichia coli
[9] = ATCC27853, at 15 µM, read-out: Growth inhibition % Pseudomonas aeruginosa
[10] = ATCC29212, at 15 µM, NA: no activity, read-out: Growth inhibition % Bacillus subtilis
[11] = IC50 ± SD, read-out: IC50 (µM) Gyr-B
[12] = at 2 µM, read-out: Antibiofilm activity (% inhibition) P. aeruginosa

Staphylococcus pyruvate kinase (PK), sequence (Q6GG09 whole entry): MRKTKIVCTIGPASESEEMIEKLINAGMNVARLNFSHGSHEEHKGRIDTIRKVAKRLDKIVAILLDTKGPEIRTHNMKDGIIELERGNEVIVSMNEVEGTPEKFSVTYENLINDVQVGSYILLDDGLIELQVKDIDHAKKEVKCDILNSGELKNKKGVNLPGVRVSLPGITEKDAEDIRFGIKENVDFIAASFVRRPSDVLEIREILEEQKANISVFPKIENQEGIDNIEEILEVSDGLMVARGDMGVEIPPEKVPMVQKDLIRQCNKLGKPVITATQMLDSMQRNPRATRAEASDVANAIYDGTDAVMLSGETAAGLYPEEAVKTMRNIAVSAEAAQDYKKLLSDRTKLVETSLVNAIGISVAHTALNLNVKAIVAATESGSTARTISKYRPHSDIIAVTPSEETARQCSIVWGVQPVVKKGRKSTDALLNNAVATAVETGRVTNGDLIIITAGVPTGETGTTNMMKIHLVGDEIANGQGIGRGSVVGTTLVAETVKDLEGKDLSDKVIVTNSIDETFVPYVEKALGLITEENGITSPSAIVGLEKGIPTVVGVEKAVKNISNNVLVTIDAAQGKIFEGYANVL
T1 sequence (P0A0K8 whole entry): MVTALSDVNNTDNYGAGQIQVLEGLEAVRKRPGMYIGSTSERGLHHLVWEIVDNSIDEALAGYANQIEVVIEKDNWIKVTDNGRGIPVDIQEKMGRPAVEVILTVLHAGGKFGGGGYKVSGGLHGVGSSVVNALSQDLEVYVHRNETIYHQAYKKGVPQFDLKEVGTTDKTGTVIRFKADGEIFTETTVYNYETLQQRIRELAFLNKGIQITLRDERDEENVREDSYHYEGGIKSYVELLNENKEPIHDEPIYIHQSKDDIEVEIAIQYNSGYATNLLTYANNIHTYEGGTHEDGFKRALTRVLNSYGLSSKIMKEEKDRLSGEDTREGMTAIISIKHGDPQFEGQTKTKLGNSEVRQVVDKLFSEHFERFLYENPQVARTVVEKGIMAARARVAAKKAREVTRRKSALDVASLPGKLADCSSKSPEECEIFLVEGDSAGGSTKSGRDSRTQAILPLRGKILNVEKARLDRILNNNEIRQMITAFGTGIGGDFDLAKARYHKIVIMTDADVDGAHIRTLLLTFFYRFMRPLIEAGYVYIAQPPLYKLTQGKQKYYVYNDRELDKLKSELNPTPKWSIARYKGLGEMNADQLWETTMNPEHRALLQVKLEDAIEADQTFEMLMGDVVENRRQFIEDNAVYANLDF
T1 sequence (P20831 whole entry partner): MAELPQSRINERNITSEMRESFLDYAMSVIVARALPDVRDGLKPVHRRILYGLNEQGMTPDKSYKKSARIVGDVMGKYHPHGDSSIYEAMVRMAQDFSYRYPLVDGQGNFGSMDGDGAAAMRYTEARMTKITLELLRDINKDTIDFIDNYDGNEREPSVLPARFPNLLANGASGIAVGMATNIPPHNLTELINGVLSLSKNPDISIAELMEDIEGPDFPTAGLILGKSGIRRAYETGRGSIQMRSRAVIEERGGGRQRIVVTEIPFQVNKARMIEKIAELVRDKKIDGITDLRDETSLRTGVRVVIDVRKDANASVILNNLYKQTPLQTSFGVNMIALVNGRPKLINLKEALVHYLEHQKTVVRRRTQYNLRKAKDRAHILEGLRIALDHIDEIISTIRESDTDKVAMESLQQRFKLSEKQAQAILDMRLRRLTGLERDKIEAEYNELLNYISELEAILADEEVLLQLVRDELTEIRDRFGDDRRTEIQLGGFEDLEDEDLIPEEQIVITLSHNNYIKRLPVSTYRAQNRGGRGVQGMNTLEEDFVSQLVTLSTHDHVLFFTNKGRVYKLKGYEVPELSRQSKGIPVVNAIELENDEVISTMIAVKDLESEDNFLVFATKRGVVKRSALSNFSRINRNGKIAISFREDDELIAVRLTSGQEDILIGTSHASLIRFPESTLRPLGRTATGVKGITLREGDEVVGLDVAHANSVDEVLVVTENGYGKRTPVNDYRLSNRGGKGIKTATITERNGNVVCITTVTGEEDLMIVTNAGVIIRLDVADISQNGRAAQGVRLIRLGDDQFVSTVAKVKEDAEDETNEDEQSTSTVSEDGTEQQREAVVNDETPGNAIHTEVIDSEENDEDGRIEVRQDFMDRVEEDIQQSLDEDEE

| SMILES | IC50 at 24 h (in vitro) | IC50 (MCF7) | IC50 (HCT116) | IC50 [1] | inhibition at 15 µM [2, 8] | inhibition at 15 µM [3] | inhibition at 15 µM [4, 9] | inhibition at 15 µM [5, 10] | inhibition at 2 µM (P. aeruginosa; [12]) | inhibition at 2 µM (S. aureus) | IC50 (HePG-2; HepG2, 24 h) | inhibition at 2 µM (E. coli; at 2 µM) | inhibition at 2 µM (B. subtilis) | also measured |
| --- | --- | --- | --- | --- | --- | --- | --- | --- | --- | --- | --- | --- | --- | --- |
| COC(=O)c1cccc2nc3c(C(=O)OC)cccc3nc12 [Compound 1, dimethyl phenazine-1,6-dicarboxylate] | 63.2 ± 3.6 µM | > 100 µM | 85 ± 3.9 µM | 7.2 ± 0.07 µM | 9.93 ± 1.3% | 47% | 23.4 ± 1.7% | 19.6 ± 1.5% | 18.4 ± 0.9% | 50% | 92.1 ± 4.7 µM | 36.7 ± 2.9% | 12.1 ± 3.2% | Growth inhibition % Staphylococcus aureus [3]: 57.19 ± 1.2%; IC50 [6, 11]: 19.2 ± 1.69 µM; Antibiofilm activity (% inhibition) S. aureus (S. aureus): 50.26 ± 0.4% |
| COC(=O)c1cccc2nc3c(C(=O)O)cccc3nc12 [Compound 2, phenazine-1,6-dicarboxylic acid mono methyl ester] | 76.3 ± 3.9 µM | 82.2 ± 4.4 µM | 60.8 ± 3.5 µM | 9.3 ± 0.03 µM | 11.2 ± 1.4% | 69% | 23.2 ± 2.2% | 32.1 ± 1.3% | 22.3 ± 1.5% | 75% | 76.1 ± 3.9 µM | 54.1 ± 2.5% | 18.6 ± 1.6% | Growth inhibition % Staphylococcus aureus [3]: 68.87 ± 0.8%; IC50 [6, 11]: 21.3 ± 2.36 µM; Antibiofilm activity (% inhibition) S. aureus (S. aureus): 75.10 ± 2.4% |
| O=C(O)c1cccc2nc3ccccc3nc12 [Compound 3, phenazine-1-carboxylic acid] | 51.2 ± 3.2 µM | > 100 µM | 91.3 ± 4.6 µM | 22.5 ± 0.04 µM | – | – | – | – | – | – | > 100 µM | – | – | inhibition at 15 µM ([2]; ATCC25922, read-out: Growth inhibition % Escherichia coli): 24.3 ± 1.8%; inhibition at 15 µM ([4]; ATCC27853, read-out: Growth inhibition % Pseudomonas aeruginosa, at 15 µM): 94%; Growth inhibition % Pseudomonas aeruginosa [4]: 94.17 ± 2.8%; inhibition at 15 µM ([5]; ATCC29212, read-out: Growth inhibition % Bacillus subtilis): 1.69 ± 1.2%; IC50 [6]: 27.7 ± 1.08 µM; inhibition at 2 µM (P. aeruginosa; read-out: Antibiofilm activity (% inhibition) P. aeruginosa, at 2 µM): 94%; Antibiofilm activity (% inhibition) P. aeruginosa (P. aeruginosa; at 2 µM): 93.98 ± 2.2%; inhibition at 2 µM (E. coli): 54.7 ± 1.4% |
| CC(=O)Nc1ccccc1O [Compound 9, N-(2-hydroxyphenyl)-acetamide] | 36.5 ± 2.3 µM | 12.7 ± 1.1 µM | 14.6 ± 1.2 µM | – | – | – | 4.74 ± 1.6% | – | 7.39 ± 1.9% | 11.5 ± 2.9% | 10.2 ± 0.9 µM | 34.5 ± 2.6% | 4.91 ± 1.8% | IC50 [7]: 10 to 36 µM |
| COc1ccc(C(N)=O)cc1 [Compound 10, p-anisamide] | > 100 µM | > 100 µM | > 100 µM | – | 19.3 ± 2.5% | 53.2 ± 1.2% | 70% | 42.2 ± 1.9% | 73% | 61.2 ± 3.7% | > 100 µM | 57.5 ± 3.1% | 20.3 ± 1.1% | Growth inhibition % Pseudomonas aeruginosa [4]: 70.23 ± 1.1%; Antibiofilm activity (% inhibition) P. aeruginosa (P. aeruginosa; at 2 µM): 73.52 ± 1.3% |
| COc1cccc2c1C(=O)c1c(O)c3c(c(O)c1C2=O)C[C@@](O)(C(=O)CO)C[C@@H]3O[C@H]1C[C@H](N)[C@H](O)[C@H](C)O1 [Doxorubicin, reference compound] | – | – | – | – | – | – | – | – | – | – | – | – | – | IC50 (HePG-2; HepG2, MTT, 24 h, table title prints "at 2 µM"): 4.5 ± 0.2 µM |
| CNC(C)C1CCC(N)C(OC2C(N)CC(N)C(OC3OCC(C)(O)C(NC)C3O)C2O)O1 (centres unmarked) [Gentamicin, reference compound] | – | – | – | – | 99 ± 0.6% | 99.1 ± 0.7% | 99.7 ± 0.2% | 97 ± 1.6% | – | – | – | – | – | – |
